Experimental data reported in ChEMBL document CHEMBL5154775, “Oxetane Promise Delivered: Discovery of Long-Acting IDO1 Inhibitors Suitable for Q3W Oral or Parenteral Dosing” (J Med Chem, 2022).
Values after ≈ are worked out from the molar mass of the structure shown.

Legend:
[1] = target: T1, Indoleamine 2,3-dioxygenase 1 (Homo sapiens, UniProt P14902); test: Inhibition of IDO1 in IFN gamma-stimulated human HeLa cells measured after 48 hrs by fluorescence based microplate reader assay; assay type: cell-based
Target sequence in this assay (P14902 whole entry): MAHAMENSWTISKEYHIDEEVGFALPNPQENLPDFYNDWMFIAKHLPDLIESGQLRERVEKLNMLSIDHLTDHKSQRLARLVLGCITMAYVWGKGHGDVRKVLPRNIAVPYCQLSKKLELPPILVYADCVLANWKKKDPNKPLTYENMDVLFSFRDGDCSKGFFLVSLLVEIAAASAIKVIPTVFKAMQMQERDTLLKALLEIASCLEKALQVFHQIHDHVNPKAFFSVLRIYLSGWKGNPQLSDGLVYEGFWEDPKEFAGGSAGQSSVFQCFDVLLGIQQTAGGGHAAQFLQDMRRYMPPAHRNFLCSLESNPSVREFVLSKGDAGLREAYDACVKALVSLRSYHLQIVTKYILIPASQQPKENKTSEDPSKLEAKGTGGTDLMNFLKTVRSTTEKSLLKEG

[2] = target: T1, Indoleamine 2,3-dioxygenase 1; test: Displacement of [3H] labeled-N-(4-Fluorophenyl)-3-(4-(4-(2-hydroxypropan-2-yl)-6-(trifluoromethyl)pyridin-3-yl)phenyl)oxetane-3-carboxamide from human IDO1 assessed as dissociation constant by radioligand binding assay
Target sequence in this assay (P14902 whole entry): as above

[3] = Unbound intrinsic clearance in rat hepatocytes; assay type: ADME, cell-based, Hepatocyte
[4] = target: T1, Indoleamine 2,3-dioxygenase 1; test: Displacement of [3H] labeled-N-(4-Fluorophenyl)-3-(4-(4-(2-hydroxypropan-2-yl)-6-(trifluoromethyl)pyridin-3-yl)phenyl)oxetane-3-carboxamide from human IDO1 assessed as inhibition constant by radioligand binding assay
Target sequence in this assay (P14902 whole entry): as above

[5] = Solubility of compound at pH 7; assay type: physicochemical; conditions: buffer
Cytochrome P450 2C9 = Cytochrome P450 2C9 (Homo sapiens, UniProt P11712); test: Inhibition of CYP2C9 (unknown origin); assay type: ADME
Cytochrome P450 2C9, sequence (P11712 whole entry): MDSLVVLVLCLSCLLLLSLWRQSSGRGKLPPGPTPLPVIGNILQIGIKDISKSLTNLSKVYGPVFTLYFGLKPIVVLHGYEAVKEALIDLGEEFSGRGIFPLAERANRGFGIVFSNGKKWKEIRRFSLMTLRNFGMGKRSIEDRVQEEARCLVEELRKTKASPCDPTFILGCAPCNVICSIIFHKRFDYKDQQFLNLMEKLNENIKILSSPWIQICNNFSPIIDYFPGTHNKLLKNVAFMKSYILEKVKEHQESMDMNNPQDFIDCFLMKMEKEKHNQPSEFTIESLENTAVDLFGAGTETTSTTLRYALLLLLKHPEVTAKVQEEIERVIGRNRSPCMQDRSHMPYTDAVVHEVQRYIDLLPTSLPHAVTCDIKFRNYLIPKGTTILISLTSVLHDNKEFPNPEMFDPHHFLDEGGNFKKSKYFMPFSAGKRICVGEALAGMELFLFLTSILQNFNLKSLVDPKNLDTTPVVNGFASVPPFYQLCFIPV

[6] = target: T1, Indoleamine 2,3-dioxygenase 1; test: Inhibition of IDO1 in IFNgamma/LPS stimulated human whole blood assessed as unbound concentration using kynurenine/tryptophan as substrate preincubated with compound for 15 mins followed by incubation with IFNgamma/LPS for 18 hrs by LC/MS/MS analysis; assay type: tissue-based
Target sequence in this assay (P14902 whole entry): as the sequence (P14902 whole entry) above

[7] = Solubility of compound at pH 2; assay type: physicochemical; conditions: buffer
[8] = Unbound intrinsic clearance in human hepatocytes; assay type: ADME, cell-based, Hepatocyte
[9] = target: Voltage-gated inwardly rectifying potassium channel KCNH2 (Homo sapiens, UniProt Q12809); test: Inhibition of MK-499 binding to hERG; assay type: toxicity
Voltage-gated inwardly rectifying potassium channel KCNH2, sequence (Q12809 whole entry): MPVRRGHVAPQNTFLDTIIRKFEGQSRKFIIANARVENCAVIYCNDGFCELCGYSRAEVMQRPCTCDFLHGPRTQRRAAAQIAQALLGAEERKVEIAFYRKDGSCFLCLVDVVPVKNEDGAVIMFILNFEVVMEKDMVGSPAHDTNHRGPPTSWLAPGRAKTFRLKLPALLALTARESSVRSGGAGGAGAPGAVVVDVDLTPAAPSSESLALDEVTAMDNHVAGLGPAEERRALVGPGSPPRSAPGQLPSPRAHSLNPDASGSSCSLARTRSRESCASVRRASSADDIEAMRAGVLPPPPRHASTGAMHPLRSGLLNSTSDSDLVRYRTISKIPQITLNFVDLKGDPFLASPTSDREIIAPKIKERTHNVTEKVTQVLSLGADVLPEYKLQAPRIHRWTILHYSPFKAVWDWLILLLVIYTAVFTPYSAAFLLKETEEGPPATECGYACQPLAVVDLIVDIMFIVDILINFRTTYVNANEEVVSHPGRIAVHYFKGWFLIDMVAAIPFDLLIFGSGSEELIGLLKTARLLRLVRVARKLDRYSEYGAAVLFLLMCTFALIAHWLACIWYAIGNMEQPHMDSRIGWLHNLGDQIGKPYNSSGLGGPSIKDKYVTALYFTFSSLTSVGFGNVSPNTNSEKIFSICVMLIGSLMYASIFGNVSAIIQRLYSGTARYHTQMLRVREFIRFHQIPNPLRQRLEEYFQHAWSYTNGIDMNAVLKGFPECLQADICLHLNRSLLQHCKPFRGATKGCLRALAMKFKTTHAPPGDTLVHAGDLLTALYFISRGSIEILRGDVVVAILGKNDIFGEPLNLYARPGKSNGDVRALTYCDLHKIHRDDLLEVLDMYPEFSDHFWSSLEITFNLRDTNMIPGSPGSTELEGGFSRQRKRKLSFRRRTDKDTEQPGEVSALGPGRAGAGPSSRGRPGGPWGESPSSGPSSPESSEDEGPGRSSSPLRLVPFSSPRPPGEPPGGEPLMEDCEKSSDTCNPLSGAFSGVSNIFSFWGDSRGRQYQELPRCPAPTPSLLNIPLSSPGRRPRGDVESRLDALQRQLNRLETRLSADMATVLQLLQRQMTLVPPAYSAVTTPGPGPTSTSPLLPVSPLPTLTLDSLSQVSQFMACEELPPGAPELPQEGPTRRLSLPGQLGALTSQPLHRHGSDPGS

[10] = Half life in dog at 0.5 mg/kg, po or 0.25 mg/kg, iv by LC-MS/MS analysis; assay type: ADME, organism-based, Canis lupus familiaris; conditions: in vivo
[11] = Oral bioavailability in dog using spray-dried dispersion at 0.5 mg/kg by LC-MS/MS analysis; assay type: ADME, organism-based, Canis lupus familiaris; conditions: in vivo
[12] = Inhibition of potassium channel (unknown origin) current; set-up: species or system Homo sapiens
[13] = Inhibition of Calcium channel (unknown origin) current; set-up: species or system Homo sapiens
[14] = Inhibition of Sodium channel (unknown origin) current; set-up: species or system Homo sapiens
[15] = target: T1, Indoleamine 2,3-dioxygenase 1; test: Displacement of [3H] labeled-N-(4-Fluorophenyl)-3-(4-(4-(2-hydroxypropan-2-yl)-6-(trifluoromethyl)pyridin-3-yl)phenyl)oxetane-3-carboxamide from human IDO1 assessed as dissociation half life by radioligand binding assay
Target sequence in this assay (P14902 whole entry, looked up): as the sequence (P14902 whole entry) above

[16] = Oral bioavailability in dog using crystalline at 0.5 mg/kg by LC-MS/MS analysis; assay type: ADME, organism-based, Canis lupus familiaris; conditions: in vivo
[17] = Oral bioavailability in Wistar Han rat using spray-dried dispersion at 1 mg/kg by LC-MS/MS analysis; assay type: ADME, organism-based; conditions: in vivo
[18] = target: Indoleamine 2,3-dioxygenase 1 (Mus musculus) (UniProt P28776); test: In vivo inhibition of human IDO1 knock-in mouse CT26 cells translated in single oral gavage dosed CD1 mouse tumor model assessed as reduction in kynurenine level in plasma measured upto 24 hrs; assay type: functional, organism-based; conditions: dose 0.3-30 mg/kg, DDE = dose-dependent effect
Indoleamine 2,3-dioxygenase 1 (Mus musculus), sequence (P28776 whole entry, looked up): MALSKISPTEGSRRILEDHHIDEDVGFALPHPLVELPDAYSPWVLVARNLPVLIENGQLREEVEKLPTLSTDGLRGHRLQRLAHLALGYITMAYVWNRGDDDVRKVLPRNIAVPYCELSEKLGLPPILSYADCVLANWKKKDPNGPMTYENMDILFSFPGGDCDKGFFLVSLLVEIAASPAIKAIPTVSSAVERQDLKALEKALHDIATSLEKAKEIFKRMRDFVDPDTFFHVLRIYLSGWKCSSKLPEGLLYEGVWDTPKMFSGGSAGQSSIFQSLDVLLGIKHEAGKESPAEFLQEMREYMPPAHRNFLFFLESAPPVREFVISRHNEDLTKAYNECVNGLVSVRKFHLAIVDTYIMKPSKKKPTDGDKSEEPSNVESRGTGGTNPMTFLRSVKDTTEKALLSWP

[19] = target: Indoleamine 2,3-dioxygenase 1 (Mus musculus) (UniProt P28776); test: In vivo inhibition of human IDO1 knock-in mouse CT26 cells translated in single oral gavage dosed CD1 mouse tumor model assessed as reduction in kynurenine level in tumor measured upto 24 hrs; assay type: functional, organism-based; conditions: dose 0.3-30 mg/kg, DDE = dose-dependent effect
[20] = target: T1, Indoleamine 2,3-dioxygenase 1; test: Displacement of [3H] labeled-N-(4-Fluorophenyl)-3-(4-(4-(2-hydroxypropan-2-yl)-6-(trifluoromethyl)pyridin-3-yl)phenyl)oxetane-3-carboxamide from human IDO1 assessed as dissociation rate constant by radioligand binding assay
Target sequence in this assay (P14902 whole entry, looked up): as the sequence (P14902 whole entry) above

[21] = Half life in Wistar Han rat at 1 mg/kg, po or 0.5 mg/kg, iv by LC-MS/MS analysis; assay type: ADME, organism-based; conditions: in vivo
[22] = Oral bioavailability in Wistar Han rat using crystalline form of sample at 1 mg/kg by LC-MS/MS analysis; assay type: ADME, organism-based; conditions: in vivo
[23] = Volume of distribution at steady state in rat; assay type: ADME; conditions: in vivo
[24] = MRT in rat; assay type: ADME; conditions: in vivo
[25] = Half life in rat; assay type: ADME; conditions: in vivo

Compound	IC50 [1] [nM]	CL free [3] [mL/min/kg]	solubility [5] [µM]	solubility [7] [µM]	CL free [8] [mL/min/kg]	also measured
O=C(Nc1ccc(F)cc1)C1(c2ccc(-c3cnc(C(F)(F)F)cc3CO)cc2)COC1	2	< 10	145 (≈ 64.7 µg/mL)	147 (≈ 65.6 µg/mL)	19	Kd [2]: 0.158 nM; Ki [4]: 0.15 nM; IC50 (Cytochrome P450 2C9): 6300 nM; IC50 [6]: 2.5 nM; IC50 [9]: 22800 nM
CC(C)(O)c1cc(C(F)(F)F)ncc1-c1ccc(C2(C(=O)Nc3ccc(F)cc3)COC2)cc1	3	12	123 (≈ 58.4 µg/mL)	124 (≈ 58.8 µg/mL)	11	half-life [10]: 43 h; bioavailability [11]: 50%; IC50 [12]: 12000 nM; IC50 [13]: 8300 nM; IC50 [14]: 40000 nM; T1/2 [15]: 2.55 h; bioavailability [16]: 16%; Ki [4]: 0.11 nM; bioavailability [17]: 62%; IC50 (Cytochrome P450 2C9): 8640 nM; Activity [18]: Dde; IC50 [6]: 0.29 nM; Activity [19]: Dde; K [20]: 4.54 10^-3/min; half-life [21]: 7.4 h; bioavailability [22]: 27%
CCCNC(=O)C1(c2ccc(NC(=O)c3cccc(Cl)c3)cc2)CCC1						Vdss [23]: 180 L/kg; MRT [24]: 0.7 h; half-life [25]: 0.89 h
Cc1cc(C(F)(F)F)ncc1-c1ccc(C2(C(=O)Nc3ccc(F)cc3)COC2)cc1		590	< 3	< 3	330	
O=C(Nc1ccc(F)cc1)C1(c2ccc(-c3cnc(C(F)(F)F)cc3CO)cc2)CC(F)(F)C1		< 12	17 (≈ 8.17 µg/mL)	16 (≈ 7.69 µg/mL)	< 6	IC50 (Cytochrome P450 2C9): 805 nM
O=C(Nc1ccc(F)cc1)C1(c2ccc(-n3cnc(C4CC4)cc3=O)cc2)COC1			143 (≈ 58 µg/mL)	140 (≈ 56.8 µg/mL)		IC50 [9]: > 60000 nM
O=C(Nc1ccc(F)cc1)C1(c2ccc(-c3ccc(C4CC4)nc3)cc2)COC1		4361	< 3	< 3	689	IC50 [6]: 377 nM

Continued, in another order:

IC50 [1] [nM]	CL free [3] [mL/min/kg]	solubility [5] [µM]	solubility [7] [µM]	CL free [8] [mL/min/kg]	Compound	also measured
1170					CCCNC(=O)C1(c2ccc(-c3ccc(C)nc3)cc2)CCC1	
> 10000					CCCNC(=O)C1(c2ccc(-c3ccccn3)cc2)CCC1	
	971	141 (≈ 53.5 µg/mL)	40 (≈ 15.2 µg/mL)	4	O=C(Nc1ccc(F)cc1)C1(c2ccc(-c3nc(C4CC4)no3)cc2)COC1	IC50 [9]: 13800 nM
	250			420	O=C(Nc1ccc(C2(C(=O)Nc3ccc(F)cc3)COC2)cc1)c1cccc(Cl)c1	
> 10000					CCCNC(=O)C1(c2ccc(-c3ccncc3)cc2)CCC1	
8020					CCCNC(=O)C1(c2ccc(-c3cccnc3)cc2)CCC1	
	1658	< 2	< 2	376	O=C(Nc1ccc(F)cc1)C1(c2ccc(-c3cnc(C(F)(F)F)cc3CO)cc2)CCC1	IC50 (Cytochrome P450 2C9): 905 nM; IC50 [9]: 11900 nM
	6156	< 3	139 (≈ 55.9 µg/mL)	365	Cc1cc(C2CC2)ncc1-c1ccc(C2(C(=O)Nc3ccc(F)cc3)COC2)cc1	IC50 [6]: 0.08 nM
